According to patent publication US7511047B2, “Kinase inhibitors” (Cytopia Research Pty Ltd, priority 2002, dated 2009):

What was measured:
Type in all cases: biochemical
Jak2 = molecular target: T1, Jak2 (Homo sapiens, UniProt O60674); assay: JAK2 kinase domain assay (ELISA or Alphascreen); details: capacity to inhibit 50% of activity at 50 μM; read-out: Jak2 inhibitory activity
T1 construct: The kinase domain of humanJAK2 was amplified from U937mRNA; His tag (from pFastBac HTc vector) (N); made in house; host or cells: baculovirus; Sf9 insect cells for virus, High Five cells for large-scale production
T1 sequence (O60674 849-1124 limits assumed): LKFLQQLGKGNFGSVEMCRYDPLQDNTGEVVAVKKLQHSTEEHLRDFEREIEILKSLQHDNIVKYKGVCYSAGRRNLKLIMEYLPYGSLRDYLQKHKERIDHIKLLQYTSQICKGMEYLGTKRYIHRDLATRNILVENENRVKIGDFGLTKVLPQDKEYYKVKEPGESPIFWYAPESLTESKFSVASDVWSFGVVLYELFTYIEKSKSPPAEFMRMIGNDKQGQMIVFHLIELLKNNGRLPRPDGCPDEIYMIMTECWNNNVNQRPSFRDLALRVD
Method: (§1) For screening purposes, compounds were diluted in 96 well plates at a concentration of 20 μM. Plates were warmed at 37° C. for 30 minutes before assay.
(§2) • JAK1 PCR products were cloned into the pFastBac HTb expression vector (Gibco) via the Xho I and Kpn I sites. The JAK1 plasmid was then transformed into competent DH10Bac cells (Gibco), and the recombinant baculovirus produced prepared for transfection into Sf9 insect cells. JAK2 • The kinase domain of humanJAK2 was amplified from U937mRNA using the polymerase chain reaction with the following primers:
• JAK2 PCR products were cloned into the pFastBac HTc expression vector (Gibco) via the Sal I and Not I sites. The JAK2 plasmid was then transformed into competent DH10Bac cells (Gibco), and the recombinant baculovirus produced prepared for transfection into Sf9 insect cells. JAK3 • The kinase domain of humanJAK3 was amplified from U937mRNA using the polymerase chain reaction with the following primers: […]
(§3) Baculovirus preparations from each of the JAK family members were infected into five litres of High Five cells (Invitrogen) grown in High Five serum free medium (Invitrogen) to a cell density of approximately 1-2×10^6 cells/ml. Cells are infected with virus at a MOI of 0.8-3.0. Cells were harvested and lysed. JAK kinase domains were purified by affinity chromatography on a Probond (Invitrogen) nickel chelate affinity column.
(§4) Kinase assays were performed either in a 96 well capture-based ELISA assay or in 384 well Optiplates (Packard) using an Alphascreen Protein Tyrosine Kinase kit. In either casse using approximately 1.5 μg of affinity purified PTK domain in the presence of 50 mM HEPES, pH 7.5, 10 mM MgCl2, 150 mM NaCl and 10 μM-1 mM ATP. The biotinylated substrate biotin-EGPWLEEEEEAYGWMDF-NH2 (SEQ ID NO:9) (final concentration 5 μM) was used as substrate. In the ELISA assay tyrosine phosphorylation was quantitated following transfer to an avidin coated ELISA plate using peroxidase-linked anti-phospho-tyrosine antibody PY20. In the Alphascreen assay, Alphascreen phosphotyrosine acceptor beads followed by streptavidin donor beads were added under subdued light. The ELISA plates were read on a BMG Fluorostar, the Alphascreen plates were read on a Packard Fusion Alpha. Inhibitors were added to the assays fifteen minutes prior to the addition of ATP. Inhibitors were added in aqueous DMSO, with DMSO concentrations never exceeding 1%.

abl = molecular target: T2, abl (Homo sapiens, UniProt P00519); assay: abl kinase assay (ELISA or Alphascreen); details: capacity to inhibit 50% of activity at 50 μM; read-out: abl inhibitory activity
T2 sequence (P00519 242-493 limits assumed): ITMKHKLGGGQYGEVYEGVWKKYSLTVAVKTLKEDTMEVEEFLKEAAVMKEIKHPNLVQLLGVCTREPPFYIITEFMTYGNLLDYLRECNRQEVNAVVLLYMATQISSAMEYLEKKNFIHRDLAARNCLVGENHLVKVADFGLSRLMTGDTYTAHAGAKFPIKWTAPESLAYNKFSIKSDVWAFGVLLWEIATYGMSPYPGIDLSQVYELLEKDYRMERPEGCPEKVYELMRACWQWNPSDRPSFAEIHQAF
Method: as §1, §4

hck = hck (Homo sapiens, UniProt P08631); assay: hck kinase assay (ELISA or Alphascreen); details: capacity to inhibit 50% of activity at 50 μM; read-out: hck inhibitory activity
hck, sequence (P08631 262-515 limits assumed, species assumed): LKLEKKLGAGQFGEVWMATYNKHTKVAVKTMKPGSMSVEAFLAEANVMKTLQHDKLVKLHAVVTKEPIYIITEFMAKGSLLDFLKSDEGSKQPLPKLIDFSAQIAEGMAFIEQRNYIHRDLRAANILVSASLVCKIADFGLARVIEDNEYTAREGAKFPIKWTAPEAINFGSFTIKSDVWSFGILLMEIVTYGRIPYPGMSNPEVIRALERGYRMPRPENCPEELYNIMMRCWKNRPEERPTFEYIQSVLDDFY
Method: as §1, §4

Jak3 = molecular target: T3, Jak3 (Homo sapiens, UniProt P52333); assay: JAK3 kinase domain assay (ELISA or Alphascreen); details: capacity to inhibit 50% of activity at 50 μM; read-out: Jak3 inhibitory activity
T3 construct: The kinase domain of humanJAK3 was amplified from U937mRNA; His tag (from pFastBac HTb vector) (N); made in house; host or cells: baculovirus; Sf9 insect cells for virus, High Five cells for large-scale production
T3 sequence (P52333 822-1111 limits assumed): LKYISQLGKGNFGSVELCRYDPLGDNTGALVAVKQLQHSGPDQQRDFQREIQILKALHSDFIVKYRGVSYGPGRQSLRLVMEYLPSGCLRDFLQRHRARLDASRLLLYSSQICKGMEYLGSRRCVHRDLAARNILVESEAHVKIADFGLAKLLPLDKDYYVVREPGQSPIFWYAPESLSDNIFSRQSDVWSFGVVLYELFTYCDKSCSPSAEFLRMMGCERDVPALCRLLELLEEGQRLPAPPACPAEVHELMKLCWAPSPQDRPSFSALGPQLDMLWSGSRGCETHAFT
Method: as §1
• JAK2 PCR products were cloned into the pFastBac HTc expression vector (Gibco) via the Sal I and Not I sites. The JAK2 plasmid was then transformed into competent DH10Bac cells (Gibco), and the recombinant baculovirus produced prepared for transfection into Sf9 insect cells. JAK3 • The kinase domain of humanJAK3 was amplified from U937mRNA using the polymerase chain reaction with the following primers:
as §2, with “JAK3” for “JAK1”, “TYK2” for “JAK2”, “humanTYK2” for “humanJAK2”, “A549 mRNA” for “U937mRNA”, “primers: […]” for “primers:”
as §3, §4

kdr = kdr (Homo sapiens, UniProt P35968); assay: kdr kinase assay (ELISA or Alphascreen); details: capacity to inhibit 50% of activity at 50 μM; read-out: kdr inhibitory activity
kdr, sequence (P35968 834-1162 limits assumed, species assumed): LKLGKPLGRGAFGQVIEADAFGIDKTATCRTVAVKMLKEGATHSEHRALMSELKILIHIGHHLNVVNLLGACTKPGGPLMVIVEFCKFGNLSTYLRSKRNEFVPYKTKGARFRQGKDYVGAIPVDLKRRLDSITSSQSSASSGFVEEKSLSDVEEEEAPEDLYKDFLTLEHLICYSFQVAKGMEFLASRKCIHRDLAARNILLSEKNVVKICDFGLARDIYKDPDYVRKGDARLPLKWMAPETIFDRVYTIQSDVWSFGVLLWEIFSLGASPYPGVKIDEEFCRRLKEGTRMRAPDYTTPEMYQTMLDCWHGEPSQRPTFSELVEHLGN
Method: as §1, §4

Row | SMILES | inhibition at 50 µM (Jak2) [%] | inhibition at 50 µM (abl) [%] | inhibition at 50 µM (hck) [%] | inhibition at 50 µM (Jak3) [%] | inhibition at 50 µM (kdr) [%]
1 | C[C@H](Nc1cncc(-n2cnc3cc(NC(=O)c4ccncc4)ccc32)n1)c1ccccc1 | < 50 | > 50 | > 50 | < 50 | > 50
2 | C[C@H](Nc1cncc(-n2cnc3cc(-c4cccnc4)ccc32)n1)c1ccccc1 | > 50 | > 50 | > 50 | > 50 | > 50
3 | C[C@@H](Nc1cncc(-n2cnc3ccccc32)n1)c1ccccc1 | > 50 | > 50 | > 50 | < 50 | > 50
4 | C[C@H](Nc1cncc(-n2cnc3cc(NC(=O)c4cccnc4)ccc32)n1)c1ccccc1 | > 50 | > 50 | > 50 | < 50 | > 50
5 | C[C@H](Nc1cncc(-n2cnc3cc(C(=O)NCCO)ccc32)n1)c1ccccc1 | > 50 | > 50 | > 50 | > 50 | > 50
6 | CNC(=O)c1ccc2ncn(-c3cncc(N[C@@H](C)c4ccccc4)n3)c2c1 | > 50 | > 50 | > 50 | > 50 | > 50
7 | C[C@H](Nc1cncc(-n2cnc3cc(NC(=O)c4ccccc4)ccc32)n1)c1ccccc1 | < 50 | > 50 | > 50 | < 50 | > 50
8 | C[C@H](Nc1cncc(-n2cnc3cc(N)ccc32)n1)c1ccccc1 | > 50 | > 50 | > 50 | < 50 | > 50
9 | C[C@H](Nc1cncc(-n2cnc3ccccc32)n1)c1ccc(-c2cccnc2)cc1 | > 50 | < 50 | < 50 | > 50 | > 50
10 | C[C@H](Nc1cncc(-n2cnc3cc(-c4ccncc4)ccc32)n1)c1ccccc1 | > 50 | > 50 | > 50 | < 50 | > 50
11 | Cc1cncn1-c1cncc(NCc2ccc(F)cc2)n1 | < 50 | > 50 | > 50 | < 50 | < 50
12 | C[C@H](Nc1cncc(-n2cnc3cc(C(=O)N4CCOCC4)ccc32)n1)c1ccccc1 | < 50 | > 50 | > 50 | < 50 | > 50
13 | CC(Nc1cncc(-n2cnc3ccccc32)n1)c1ccc(F)cc1 (stereo not drawn) | > 50 | > 50 | > 50 | < 50 | > 50
14 | c1ccc2c(c1)ncn2-c1cncc(Nc2ccc(N3CCOCC3)cc2)n1 | < 50 | < 50 | > 50 | < 50 | > 50
15 | C[C@H](Nc1cncc(-n2cnc3ccc(NC(=O)C4CC4)cc32)n1)c1ccccc1 | < 50 | > 50 | > 50 | < 50 | > 50
16 | C[C@H](Nc1cncc(-n2cnc3ccc(N)cc32)n1)c1ccccc1 | > 50 | > 50 | > 50 | < 50 | > 50
17 | Fc1ccc(CNc2cncc(-n3ccnc3)n2)cc1 | < 50 | < 50 | > 50 | > 50 | < 50
18 | CC(Nc1cncc(-n2cnc3ccccc32)n1)c1ccc(-c2ccccc2)cc1 (stereo not drawn) | < 50 | > 50 | > 50 | < 50 | < 50
19 | Cc1cn(-c2cncc(NCc3ccc(F)cc3)n2)cn1 | > 50 | < 50 | < 50 | < 50 | < 50
20 | C[C@H](Nc1cncc(-n2ccnc2)n1)c1ccccc1 | < 50 | > 50 | > 50 | < 50 | < 50
21 | C[C@H](Nc1cncc(-n2cnc3cc(NS(=O)(=O)c4ccccc4)ccc32)n1)c1ccccc1 | > 50 | < 50 | < 50 | > 50 | > 50
22 | C[C@H](Nc1cncc(-n2cnc3ccc(CO)cc32)n1)c1ccccc1 | > 50 | < 50 | > 50 | > 50 | > 50
23 | C[C@H](Nc1cncc(-n2cnc3ccc(C(=O)NCCCN4CCOCC4)cc32)n1)c1ccccc1 | > 50 | > 50 | > 50 | < 50 | > 50
24 | C[C@H](Nc1cncc(-n2cnc3cc(C(=O)N4CCN(C)CC4)ccc32)n1)c1ccccc1 | < 50 | > 50 | > 50 | < 50 | > 50
25 | C[C@H](Nc1cncc(-n2cnc3cc(C(=O)NCCCn4ccnc4)ccc32)n1)c1ccccc1 | > 50 | > 50 | > 50 | < 50 | > 50
26 | C[C@H](Nc1cncc(-n2cnc3cc(C(N)=O)ccc32)n1)c1ccccc1 | > 50 | > 50 | > 50 | < 50 | > 50
27 | CC(=O)Nc1ccc2c(c1)ncn2-c1cncc(N[C@@H](C)c2ccccc2)n1 | < 50 | > 50 | > 50 | < 50 | > 50
28 | C[C@H](Nc1cncc(-n2cnc3cc(C(=O)Nc4ccccc4)ccc32)n1)c1ccccc1 | < 50 | > 50 | > 50 | < 50 | < 50
29 | COCC(=O)Nc1ccc2ncn(-c3cncc(N[C@@H](C)c4ccccc4)n3)c2c1 | > 50 | > 50 | > 50 | < 50 | > 50
30 | C[C@H](Nc1cncc(-n2cnc3ccc(NC(=O)c4cccnc4)cc32)n1)c1ccccc1 | > 50 | > 50 | > 50 | < 50 | > 50
